The numbers were not newly measured in US20260008814A1, “DEVELOPMENT OF PEPTIDES WITH ANTI-CANCER AND ANTIMICROBIAL PROPERTIES” (YILDIZ TEKNIK ÜNIVERSITESI DÖNER SERMAYE ISLETME MÜD, priority 2023, published 2026), which cites them from elsewhere.

In this data set the test system is F. nucleatum attachment and invasion of HCT116.

For the sequence ASANWTIQYND, the “inhibition of F. nucleatum attachment and invasion” value is on record as “inhibitory peptide”.
